Test results published in BindingDB's records for doi:10.1016/j.bmcl.2004.03.096 (The University of Newcastle, 2004).

Key:
[1] = Concentration required against dynamin-1 GTPase activity of sheep brain.
[2] = as above; remark: listed apart in the source
[3] = Concentration required against dynamin-1 GTPase activity of sheep brain; increased dynamin I GTPase activity at 30 uM.

Compound | IC50 [1] | IC50 [2] | IC50 [3]
CCCCCCCCCCCCCCN | 14.9 µM | 8.74 µM | –
NCCCCCCCCCCCCN [1,12-diaminododecane] | 39.6 µM | – | –
CCCCCCCCCCCCCCOC(CN)CN [2-Tetradecyloxy-propane-1,3-diammonium chloride] | 7.37 µM | – | –
CCCCCCCCCCCCCC[N+](C)(C)CCO [(2-Hydroxy-ethyl)-dimethyl-tetradecyl-ammonium; bromide] | 9.36 µM | – | –
CCCC/C=C\C/C=C\C/C=C\C/C=C\CCCC(=O)NCCF [(5Z,8Z,11Z,14Z)-Nonadeca-5,8,11,14-tetraenoic acid (2-fluoro-ethyl)-amide] | > 300 µM | – | –
CCCC/C=C\C[C@@H](O)/C=C/C=C/C=C\[C@@H](O)CCCC(=O)O [(6Z,8E,10E,14Z)-(5S,12R)-5,12-Dihydroxy-nonadeca-6,8,10,14-tetraenoic acid] | – | – | > 300 µM
CCCCCCCCCCCCCC[N+](C)(C)CCCC [Butyl-dimethyl-tetradecyl-ammonium; bromide] | 8.02 µM | – | –

Further lines, results first:

IC50 [1] | IC50 [2] | IC50 [3] | Compound
8.85 µM | – | – | CCCCCCCCCCCCCC[N+](C)(C)CCC [Dimethyl-propyl-tetradecyl-ammonium; bromide]
10.1 µM | – | – | CCCCCCCCCCCC[N+](C)(C)CC [Dodecyl-ethyl-dimethyl-ammonium; bromide]
20.2 µM | – | – | CCCCCCCCCCCCCCN [Tetradecylamine]
10.2 µM | – | – | CCCCCCCCCCCCCCCC[P+](CCCC)(CCCC)CCCC [Tributyl-hexadecyl-phosphonium; bromide]
23 µM | – | – | CCCCCCCCCCCCC(=O)OCCN(C)C [Tridecanoic acid 2-dimethylamino-ethyl ester]
8.85 µM | – | – | CCCCCCCCCCCCC(=O)NCCN(C)C [Tridecanoic acid (2-dimethylamino-ethyl)-amide]
9.62 µM | – | – | CCCCCCCCCCCCCCCC[N+](CC)(CC)CC [Triethyl-hexadecyl-ammonium; bromide]
8.45 µM | – | – | CCCCCCCCCCCCCC[N+](CC)(CC)CC [Triethyl-tetradecyl-ammonium; bromide]
